Data taken from patent US6368580B1, “Composition suitable as food integrator and for the treatment of intestinal disorders and alterations of the bacterial flora” (Giuliani S.p.A, priority 1999, dated 2002).
“Also recorded” adds a separate entry of the source.

How the values were obtained:
Bacillus coagulans [1] = assay: Growth of Bacillus coagulans in Sabouraud's broth with added nutrient, optical density by biophotometer; type: cell-based; conditions: for increase in growth of Bacillus coagulans (optical density A630), preliminary evaluations of amino acids: aspartic acid, proline, lysine, tryptophan compared, biophotometer
Experimental: Consequently, microbiological tests have been conducted by adding a number of amino acids (particularly aspartic acid, lysine, proline) to the culture medium specific for Lactobacillus. […] Evaluation of the growth of Bacillus coagulans was performed using and agar/Sabouraud's broth to which 0.5% of yeast extract was added. At this point, an attempt was made to determine which of the various amino acid components present in the yeast (aspartic acid, proline, lysine, tryptophan), and in what concentrations, were able to favor more vigorous development of the microorganism. The increase in growth was evaluated by biophotometer which recorded the optical density (A630).
In special sterilized cuvettes for biophotometry, broth cultures were prepared, with the addition to the base culture medium (10 ml of Sabouraud's broth) of: […]
One cuvette containing Sabouraud's broth alone was used as control. Each of the four broth cultures was subsequently inoculated with 100 μl of a dilution of a broth culture (overnight incubation) of Bacillus coagulans made starting from the lyophilized powder (final concentration of 10^4 cfu/ml).
The growth of the culture was evaluated in terms of optical density, using a biophotometer, which is capable of determining the degree of development on the basis of the increase in turbidity. The curvettes thus prepared were set inside the compartment of the instrument in the presence of a magnetic stirrer that was able to keep the culture in uniform suspension, a condition which enables a proper reading of the turbidity of the culture medium to be made.
The optical density appears on the ordinate, the values proportional to the number of bacteria produced. The time is given on the abscissa. The four curves shown on the graph identify the behavior, respectively, of lysine (at a concentration of 0.025 mg/ml), yeast (5 mg/ml), proline (0.01 mg/ml), and the Sabouraud's culture medium reference standard.

Bacillus coagulans [2] = assay: Lactic acid (L+) production in Bacillus coagulans broth culture; type: cell-based; conditions: 24-hour broth culture to which lysine was added; higher than blank controls or other amino acids

SMILES	increase in growth of Bacillus coagulans (optical density A630), preliminary evaluations of amino acids (Bacillus coagulans [1])	lactic acid (L+) production (Bacillus coagulans [2]) [mg/L]	growth of the Lactobacillus cells and formation of lactic acid (L+) (Bacillus coagulans [1]; amino acid added to the culture medium, lysine at concentrations of the order of 0.1-1 mg/ml)	growth of Bacillus coagulans (optical density, growth curve) (Bacillus coagulans [1]; lysine 0.025 mg/ml in Sabouraud's broth, overnight incubation at 37° C., compared with proline 0.01 mg/ml, yeast 5 mg/ml, broth alone)
O=C(O)[C@@H]1CCCN1 [proline, reference compound]	best results	–	–	–
NCCCC[C@H](N)C(=O)O [lysine]	best results	486	enhanced the growth of the Lactobacillus cells and the formation of lactic acid (L^+)	most effective nutrient; also recorded: significantly increases the growth curve, reducing the latency phase and increasing the number of cells
